Here are results for 2 compounds from patent publication US5965539A, “Inhibitors of prenyl transferases” (Univeristy of Pittsburgh, priority 1996, dated 1999).

Structures are written as SMILES. Like-named read-outs stand apart in the source and are kept apart here. Where only a bound is given, the exact number is not on record here.

The text on series [1]:
(§1) In this model, tumors from two human lung carcinoma cell lines are implanted subcutaneously. One of these (Calu-1) harbors a K-Ras oncogenic mutation and has a deletion of the tumor suppressor gene p53. The other human lung carcinoma ([…]) has no Ras mutations.

The test system of series [2] is Calu-1 human lung carcinoma.
Text: (§2) Calu-1 (Panel A) and NCI-H810 cells (Panel B) were purchased from ATCC and grown in McCoy's 5A medium in 10% FBS (Fetal Bovine Serum) and RPMI 1640 in 10% FBS, respectively. The cells were harvested, resuspended in PBS and injected s.c. into the right and left flank of 8 week old female nude mice (10^7 cells/flank). Nude mice (Harlan Sprague Dawley, Indianapolis, Ind.) were maintained in accordance with the Institutional Animal Care and Use Committee (IACUC) procedures and guidelines. On day 32 after s.c. implantation of tumors, animals were dosed i.p. with 0.2 ml once daily for 36 days. […] The tumor volumes were determined by measuring the length (l) and the width (w) and calculating the volume (V=(l)×(w)^2 /2). Data are presented as the average volume of eight tumors in each group for each cell line. Statistical significance between control and treated groups were evaluated by using student t test (*P<0.05).
as §1

In a further series the target is T1, GGTase I (Homo sapiens, UniProt P53609).
T1 construct: FTase and GGTase I activities from 60,000×g supernatants of human Burkitt lymphoma (Daudi) cells; endogenous in cells; host or cells: human Burkitt lymphoma (Daudi) cells, 60,000xg supernatant (partially purified)
As to the kind of experiment: GGTase I activity assay: transfer of [3H]geranylgeranyl to recombinant H-Ras-CVLL, Daudi 60,000xg supernatant. The class given is biochemical. How it is done:
FTase and GGTase I activities from 60,000×g supernatants of human Burkitt lymphoma (Daudi) cells (ATCC, Rockville, Md., USA) were assayed as described previously for FTase (41). Briefly, 100 μg of the supernatant was incubated in 50 mM Tris, pH 7.5, 50 μM ZnCl2, 20 mM KCl and 1 mM dithiothreitol (DTT). The reaction was incubated at […] for 30 min with recombinant Ha-Ras-CVLS (11 μM) and [^3 H]FPP (625 nM; 16.3 Ci/mmol) for FTase, and recombinant Ha-Ras-CVLL (5 μM) and [^3 H]geranylgeranylpyrophosphate (525 nM; 19.0 Ci/mmol) for GGTase I. The peptidomimetics were mixed with FTase and GGTase before adding to the reaction mixture.
Human Burkitt lymphoma (Daudi) cells (ATCC, Rockville, Md.) were grown in suspension in RPMI 1640 medium containing 10% fetal bovine serum (FBS) and 1% Pen-Strep in a humidified 10% CO2 incubator at 37° C. The cells were harvested and sonicated in 50 mM Tris, pH 7.5, 1 mM EDTA, 1 mM EGTA, 25 μg/ml leupeptin, 1 mM phenylmethylsulfonyl fluoride. Homogenates were then spun at 12,000×g and the resulting supernatant further spun at 60,000×g. The supernatant was assayed for both FTase and GGTase I. Briefly, 100 μg of the supernatants was incubated in 50 mM Tris, pH 7.5, 50 μM ZnCl2, 20 mM KCl, 3 mM MgCl2 and 1 mM DTT. For FTase assays, the reaction was incubated at 37° C. for 30 minutes with recombinant H-Ras-CVLS (11 μM) and [^3 H] FPP (625 nM; 16.3 Ci/mmol). For GGTase assays, the reaction was also incubated for 30 minutes at 37° C. but with recombinant H-Ras-CVLL (5 μM) and [^3 H] GGPP (525 nM; 19.0 Ci/mmol). The reaction was stopped and passed through glass fiber filters to separate free and incorporated label. For inhibition studies, the peptidomimetics were premixed with FTase or GGTase I prior to adding the remainder of the reaction mixture. Recombinant H-Ras-CVLS was prepared as described previously (26) from bacteria (31). Recombinant H-Ras-CVLL was prepared from bacteria (32).
FTase and GGTase I activities from 60,000×g supernatants of human Burkitt lymphoma (Daudi) cells (ATCC, Rockville, Md.) were assayed exactly as described previously for FTase (41). Inhibition studies were performed by determining the ability of Ras CAAX peptidomimetics to inhibit the transfer of [^3 H]-farnesyl and [^3 H]-geranylgeranyl from [^3 H]FPP and [^3 H]GGPP to H-ras-CVLS and H-Ras-CVLL, respectively (41).

Series [3] has as its system Raf-transformed NIH 3T3 cells. To be noted: 50 mg/kg once daily.
For the next series, the system named is Ras processing. To be noted: 10 to 100 mg/kg, 5 hrs after last injection. On the procedure:
(§3) A. Antitumor efficacy was carried out as described in FIG. 3 except that animals were randomly assigned to four groups each of 4 mice each (2 tumors per mouse). […] B. Ras processing was carried out 5 hours after the last treatement on day 17. Tumors were extracted from the animals, tissumized, and lysed in lysis buffer as described in FIG. 1. Lysates (25 μg) were electrophoresed on a 12.5% SDS-PAGE and immunoblotted with anti-Ras antibody Y13-238 as described previously. The blots were then reprobed with anti-Rap1A antibody (Santa Cruze Biotechnologies, Santa Cruz, Calif.).
(§4) The tumor sizes at the end of 17 days were 2490 mm^3 for saline, 1793 mm^3 for 10 mg/kg, 1226 mm^3 for 50 mg/kg and 624 mm^3 for 100 mg/kg treated animals. […] Tumors from control animals contained only fully processed Ras which migrates faster in SDS-PAGE gels (FIG. 11B). […] Thus, the extent of tumor growth inhibition correlated with the extent of inhibition of Ras processing.

The subject of series [4] is H-RasF transformed NIH 3T3 cells. How it is done:
as §3, §4

In series [5] the test system is Rap1A processing. To be noted: 100 mg/kg. On the procedure: as §3, §4
In series [6] the test system is NCI-H810 human lung carcinoma. The conditions noted are these: 50 mg/kg once daily, 14 days of treatment.
Text: as §2

Series [7] concerns Rap1A processing. The experiment in a line: Rap1A processing assay in NIH 3T3 cells overexpressing oncogenic H-Ras, immunoblot. It counts as cell-based. The conditions noted are these: whole cells; for IC50: Mus musculus, NIH3T3. On the procedure: (§5) H-RasF cells (45) were seeded on day 0 in 100 mm Dishes (costar) in Dulbecco's modified Eagles medium (GIBCO) and allowed to grow to 40-60% confluency. […] On day 3, cells were washed one time with ice cold PBS and were collected and lysed by incubation for 30-60 min on ice in lysis buffer (41). Lysates were cleared (14,000 rpm, 4° C., 15 min) and supernatants collected. Equal amounts of lysate were separated on a 12.5% SDS-PAGE, transfered to nitrocellulose, and a western blot performed using a anti-Ras antibody (Y13-238, ATCC) or anti-Rap1A antibody (Santa Cruz Biotechnology, Santa Cruz, Calif.). Antibody reactions were visualized using peroxidase-conjugated goat anti-rat IgG for Y13-238 and peroxidase-conjugated goat anti-rabbit IgG for Rap1A and an enhanced chemiluminescence detection system (ECL; Amersham Corp.)
(§6) H-Ras cells (45) and K-Ras4B Cells (32) were kind gifts from Dr. Channing Der and Dr. Adrienne Cox (University of North Carolina, Chapel Hill). Means of obtaining these cell lines will be easily recognized by the skilled practitioner. Cells were seeded on day 0 in 100 mm dishes in Dulbecco's modified Eagles medium supplemented with 10% calf serum and 1% penicillin-streptomycin. […] On day 3, cells were washed and lysed in lysis buffer containing 50 mM HEPES, pH 7.5, 10 mM NaCl, 1% TX-100, 10% glycerol, 5 mM MgCl2, 1 mM EGTA, 25 μg/ml leupeptin, 2 mM PMSF, 2 mM Na3 VO4, 1 mg/ml soybean trypsin inhibitor, 10 μg/ml aprotinin, 6.4 mg/ml Sigma-104® phosphatase substrate. Lysates were cleared (14,000 rpm, 4° C., 15 min) and equal amounts of protein were separated on a 12.5% SDS-PAGE, transferred to nitrocellulose, and immunoblotted using an anti-Ras antibody (Y13-259, ATCC) or an anti-RapIA antibody (SC-65, Santa Cruz Biotechnology, Santa Cruz, Calif.). Antibody reactions were visualized using either peroxidase-conjugated goat anti-rat 1 gG (for Y13-259), or peroxidase-conjugated goat anti-rabbit 1 gG (for Rap1A) and an enhanced chemiluminescence detection (ECL, Amersham Corp.), as described previously (41).

For a further series, the system named is K-Ras4B processing. As to the kind of experiment: K-Ras4B processing assay in NIH 3T3 cells overexpressing oncogenic K-Ras4B. The conditions noted are these: for IC50: Mus musculus, NIH3T3, whole cells. The class given is cell-based. The text has this: H-Ras cells (45) and K-Ras4B Cells (32) were kind gifts from Dr. Channing Der and Dr. Adrienne Cox (University of North Carolina, Chapel Hill). Means of obtaining these cell lines will be easily recognized by the skilled practitioner.

The subject of series [8] is oncogenic K-Ras4B activation of MAP kinase. The experiment in a line: Oncogenic K-Ras4B activation of MAP kinase, immunoblot. The class given is cell-based. The text has this: (§7) Equal amounts of protein were separated on a 15% SDS-PAGE, transferred to nitrocellulose, and immunoblotted using an anti-MAP kinase antibody (erk2, monoclonal, UB1, Lake Placid, N.Y.). Antibody reactions were visualized using peroxidase-conjugated donkey anti-mouse IgG (Jackson ImmunoResearch Laboratories Inc., West Grove, Pa.) and an enhanced chemiluminescence detection system (ECL, Amersham Corp.)
In general terms: A western blot detects proteins with antibodies after separation by electrophoresis.

Series [9] deals with K-Ras4B transformed NIH-3T3 cells. The experiment in a line: Nude mouse xenograft, K-Ras4B transformed NIH-3T3 cells. To be noted: for tumor size: two weeks. It counts as in vivo, nude mice. How it is done: In contrast, tumors from animals treated once daily with GGTI-286 (25 mg/kg or 50 mg/kg) grew to a size of 1600 mm^3 or 900 mm^3, respectively (FIG. 22).
The subject of a further series is H-Ras processing. The experiment in a line: Ras processing assay in H-RasF cells (NIH 3T3 transformed with oncogenic H-Ras-CVLS), immunoblot. It counts as cell-based. To be noted: for IC50: Mus musculus, NIH3T3, whole cells. How it is done: as §5, §6
The test system of series [10] is oncogenic H-Ras activation of MAPK. As to the kind of experiment: Oncogenic H-Ras activation of MAP kinase, immunoblot. The class given is cell-based. The conditions noted are these: 0-30 μM, FIG. 20.
Text: as §7

T1 sequence (P53609 whole entry): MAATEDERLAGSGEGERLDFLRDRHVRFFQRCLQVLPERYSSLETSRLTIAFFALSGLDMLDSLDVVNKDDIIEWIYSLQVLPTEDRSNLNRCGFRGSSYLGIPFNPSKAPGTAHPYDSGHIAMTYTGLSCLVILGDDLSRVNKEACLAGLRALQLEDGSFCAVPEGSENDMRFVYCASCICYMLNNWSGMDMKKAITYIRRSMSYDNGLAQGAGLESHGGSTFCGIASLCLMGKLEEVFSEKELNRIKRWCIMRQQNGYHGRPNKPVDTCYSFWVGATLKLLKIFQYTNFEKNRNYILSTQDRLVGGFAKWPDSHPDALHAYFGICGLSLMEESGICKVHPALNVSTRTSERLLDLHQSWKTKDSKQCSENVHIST

A word on the IC50: it is the concentration needed to halve the response being measured. Take `CSCC[C@H](NC(=O)c1ccc(NC[C@@H](N)CS)cc1-c1ccccc1)C(=O)O` [FTI-276, 4-N-[2(R)-Amino-3-mercaptopropyl]amino-2-phenylbenzoyl methionine]: the weight loss result in [1] (50 mg/kg once daily for 36 days) is “no weight loss was observed”. In addition, the toxicity result in series [1] (dose escalated to 180 mg/kg once daily) is reported as “lack of toxicity”. Moreover, the average tumor size in series [2] (50 mg/kg i.p. once daily, 64 days from tumor implantation) is listed as 113 mm^3; in series [6], 815 mm^3. The “tumor growth of Calu-1” value in series [2] (50 mg/kg once daily) was “essentially blocked tumor growth”. For the same compound, the half-maximal inhibitory concentration (IC50) on GGTase I (Table 1, read-out: GGTase I IC50) came out at 0.057 µM; on GGTase I (Table 5, read-out: In Vitro IC50 GGTase I) it was 0.05 µM; on GGTase I (read-out: GGTase I IC50), 0.05 µM. In addition, the “growth of Raf-transformed NIH 3T3 cells” value in series [3] is given as “had no effect”. The “Ras processing in tumors” value with Ras processing is reported as “progressive accumulation of unprocessed Ras”. The “tumor size at the end of 17 days” value in series [4] (10 mg/kg) turned out to be 1793 mm^3; in [4] (50 mg/kg), 1226 mm^3; in series [4] (100 mg/kg) it was 624 mm^3. Further, in series [4] (50 mg/kg once daily), the “tumor growth of H-RasF transformed NIH 3T3 cells” value was “inhibited tumor growth”. Moreover, the “Rap1A processing in tumors” value in the series with Rap1A processing [5] is listed as “did not inhibit Rap1A processing”.
Take `COC(=O)[C@H](CC(C)C)NC(=O)c1ccc(NC[C@@H](N)CS)cc1-c1ccccc1.Cl` [GGTI-286, 4-[2(R)-amino-3-mercaptopropyl]amino-2-phenylbenzoyl-(S)-leucine methyl ester hydrochloride]: the half-inhibitory concentration (IC50) with Rap1A processing [7] (Table 5, read-out: In Vivo Processing IC50 Rap1A) was 2 µM; in the series with Rap1A processing [7] (read-out: Rap1A processing IC50), 2 µM; in the series on K-Ras4B processing (Table 5, read-out: In Vivo Processing IC50 K-Ras), 2 µM; with K-Ras4B processing (read-out: K-Ras4B processing IC50), 2 µM; in series [8] (read-out: IC50, inhibition of K-Ras4B MAP kinase activation), 1 µM; with H-Ras processing (Table 5, read-out: In Vivo Processing IC50 H-Ras), more than 30 µM. For the same compound, the IC50 in the series on H-Ras processing (read-out: H-Ras processing IC50) is more than 30 µM. In addition, the “selectivity for inhibition of geranylgeranylation over farnesylation processing” value in the series with Rap1A processing [7] is “more than 15 fold”. Moreover, the “concentrations inhibiting K-Ras4B processing that had no effect on processing of farnesylated H-Ras” value in the series with K-Ras4B processing lay in the range of 1 to 3 µM. In series [8], the “concentration of complete block of K-Ras4B MAP kinase activation” value amounted to 10 µM. The “inhibition of tumor growth” value in [9] (25 mg/kg once daily) was found to be 50%; in series [9] (50 mg/kg once daily), 70%. The results for the tumor size in [9] (25 mg/kg once daily) and in series [9] (50 mg/kg once daily) were 1600 mm^3 and 900 mm^3, respectively. Further, in the series on H-Ras processing (FIG. 18), the “concentration needed for accumulation of unprocessed H-Ras” value is not below 30 µM. Besides, in series [10], the “inhibition of oncogenic H-Ras activation of MAP kinase” value is “inhibited only slightly”.
